Assay results taken from patent US20250199015A1, “CYCLIN-DEPENDENT KINASE 2 INHIBITORS FOR MEDICAL TREATMENT” (INCYCLIX BIO, LLC, priority 2022, published 2025).

Columns and labels:
[1] = tested on: OVCAR-3 cells; experiment: CellTiter Glo cell proliferation assay; assay type: cell-based, human; conditions: Homo sapiens, OVCAR-3, 144 h; six days
Description: Plates were returned to the incubator for six additional days. On day six post dosing, plates were removed and treated with CellTiter Glo reagent following manufacturer's specifications. Plates were incubated 45 minutes at room temperature and run on Biotek luminometer with 1 sec/well detection. Results were converted to Microsoft Excel and transferred to Graphpad Prism for analysis. […] These cell types are distinguished by either gained of cyclin E1 expression or activation (Kuramochi) or intrinsic amplification of cyclin E1 (OVCAR-3, COV318).
In a similar manner, OVCAR-3 cells were grown in RPMI-1640, 1× Glutamax, 10% FBS and 1×ITS at 37° C., 5% CO2. Cells were plated at 500 cells per well in white wall/clear bottom plates and incubated overnight. […] Plates returned to incubator for six additional days. On day six post dosing, plates were removed and treated with CellTiter Glo reagent following manufacturer's specifications. Plates were incubated 45 minutes at room temperature and run on Biotek luminometer with 1 sec/well detection. Results were converted to Microsoft Excel and transferred to GraphPad Prism for analysis.

[2] = tested on: FUOV-1 cells; experiment: CellTiter-Glo cell proliferation assay; assay type: cell-based; conditions: Homo sapiens, 144 h; 6 days; read-out: IC50 in FUOV1 cells
Description: The Kuramochi human ovarian carcinoma cell line was grown in RPMI-1640/1× Glutamax/10% fetal bovine serum and the FUOV-1 human ovarian carcinoma cell line was grown in DMEM/F12/1× Glutamax/10% fetal bovine serum and both were plated at 1,000 cells/well in Corning 96 well white wall/clear bottom tissue culture treated plates. […] Plates were removed from incubator at each specified timepoint and treated with CellTiter-Glo (Promega, Inc) following manufacturer specifications. Plates were then read on CLARIOstar luminometer with 1 sec/well integration. Results were converted to Microsoft Excel and transferred to GraphPad Prism for Analysis (FIG. 16A-B).

[3] = tested on: H526 cells; experiment: CellTiter Glo cell proliferation assay (single agent and chemotherapy combination); assay type: cell-based, human; conditions: Homo sapiens, NCI-H526, 144 h; six days
Description: Plates returned to incubator for six additional days. On day six post dosing, plates were removed and treated with CellTiter Glo reagent following manufacturer's specifications. Plates incubated 45 minutes at room temperature and run on a Biotek luminometer with 1 sec/well detection. Results were converted to Microsoft Excel and transferred to GraphPad Prism for analysis.
Cells were plated at 250 cells per well in white wall/clear bottom plates and incubated overnight. […] Plates returned to the incubator for six additional days. On day six post dosing, plates were removed and treated with CellTiter Glo reagent following manufacturer's specifications. Plates incubated 45 minutes at room temperature and run on a Biotek luminometer with 1 sec/well detection. Results were converted to Microsoft Excel and transferred to GraphPad Prism for analysis.
(§1) Dose curves ranged from 300 pM to 10 μM in triplicate and treatments lasted for 6 days. Plates were removed from incubator at each specified timepoint and treated with CellTiter-Glo (Promega, Inc) following manufacturer specifications. Plates were then read on CLARIOstar luminometer with 1 sec/well integration.
as §1, with “integration. Results were converted to Microsoft Excel and transferred to GraphPad Prism for Analysis.” for “integration.”

[4] = tested on: caspase 3/7 in H526 cells; experiment: CaspaseGlo-3/7 activation; assay type: cell-based, human; conditions: for IC50: Homo sapiens
Description: (§2) Plates were removed from incubator and treated with CaspaseGlo-3/7 (Promega, Inc) following manufacturer specifications. Plates were then read on a Biotech luminometer with 1 sec/well integration. Results were converted to Microsoft Excel and transferred to GraphPad Prism for Analysis (FIG. 22D).
as §2, with “from the” for “from”, “incubator at each specified timepoint” for “incubator”, “on” for “on a”, “27A-C).” for “22D).”

[5] = tested on: OVCAR-3 cells; experiment: Cell cycle by EdU flow cytometry (dose, time, washout, tracing); assay type: cell-based, human; conditions: 600 nM
Description: Cells were plated at 100,000 cells/well in Corning 6 cm tissue culture treated plates. […] Cells were collected and fixed in 1% paraformaldehyde. Cells were incubated with Alexa488 azide dye as described by Thermo Scientific. Cells were then incubated with Fxcycle-violet and RNase. Cells were analyzed on a BD Celesta and data compiled using FloJo and GraphPad.
The OVCAR3 human ovarian carcinoma cell line was grown in RPMI-1640/1× Glutamax/1× Insulin/10% fetal bovine serum and was plated at 300,000 cells/well in Corning 6 cm tissue culture treated plates. […] Cells were treated for the indicated amount of time (24 hours or 48 hours), with 10 μM EdU added for the last hour of treatment. Cells were collected and fixed in 1% paraformaldehyde. Cells were incubated with Alexa 488 (A488) azide dye as described by Thermo Scientific. Cells were then incubated with FarRed dye and RNase. Cells were analyzed on a BD Celesta and data compiled using FloJo and GraphPad Prism (FIG. 13A-B).
The OVCAR3 human ovarian carcinoma cell line was grown in RPMI-1640/1× Glutamax/1× Insulin/10% fetal bovine serum and was plated at 300,000 cells/well in Corning 6 cm tissue culture treated plates. […] At 24 hours, the remaining plates were rinsed with media before un-treated media was added back. Cells were collected at the indicated times, with 10 μM EdU added for the last hour (FIG. 14A). Cells were collected and fixed in 1% paraformaldehyde. Cells were incubated with Pacific blue azide dye as described by Thermo Scientific. Cells were then incubated with FarRed dye and RNase. Cells were analyzed on a BD Celesta and data compiled using FloJo and GraphPad. […] By 18 hours, OVCAR-3 cells were in G2 or reentering G1. Cells appeared to remain somewhat synchronized over 48 hours.
The OVCAR3 human ovarian carcinoma cell line was grown in RPMI-1640/1× Glutamax/1× Insulin/10% fetal bovine serum and was plated at 300,000 cells/well in Corning 6 cm tissue culture treated plates. […] Cells were divided into two sets. The first set was treated for the indicated amount of time, with 10 μM EdU added for the last hour of treatment before being collected. The second set of cells were treated for the indicated amount of time and had EdU added for one hour before the timepoint. Then the media was aspirated, the cells washed, and re-treated with treatment media. The second set of cells was collected at 48 hours, allowing for tracing of the EdU positive cells. Cells were collected and fixed in 1% paraformaldehyde. Cells were incubated with Alexa 488 (A488) azide dye as described by Thermo Scientific. Cells were then incubated with FarRed dye and RNase. Cells were analyzed on a BD Celesta and data compiled using FloJo and GraphPad. […] Several “snap shots” of cells at various timepoints, followed by where the cells from S phase ended up at the end of 48 hours of treatment, were collected. […] It appears that the cells in S phase at after 6 hours of treatment are arresting in G1 (FIG. 15B). At 24 hours of treatment, little to no cells were in S phase so there were no cells to trace (FIG. 15C). Although the DMSO sample appears largely different at 48 hours, the distribution appears similar to the DMSO, EdU free cells at 48 hours. […] (FIG. 15D).

IC50 [1]: 294 nM
IC50 [3]: 305 nM
IC50 ([4]; NCI-H526, 48 h, 48 hours): 1250 nM
IC50 ([4]; NCI-H526, 72 h, 72 hours): 495 nM
Compound: COCc1cc(C(=O)Nc2cc([C@H]3CC[C@@H](OC(=O)NC(C)C)C3)[nH]n2)n(C)n1 [PF-07104091, reference compound]
IC50 [2]: 80 nM
caspase 3/7 activation ([4]; 24 hours): no appreciable caspase 3/7 activation
G1 arrest over 48 h [5]: appears to hold cells in G1 over 48 hours
